Assay results as given in patent US11168287B2, “Anti-adherent compositions and methods of inhibiting the adherence of microbes to a surface” (Kimberly-Clark Worldwide, Inc., priority 2016, dated 2021).

How the values were obtained:
[1] = test system: Phi X 174; assay: High Throughput Test to Quantify the Attachment of Phage to a Surface, DNA virus Phi X 174; set-up: species or system Phi X 174 bacteriophage; conditions: for Phi X 174 Percent Reduct. (%) / Phi X 174 Log. R (PFU/mL) compared to growth controls: pegs coated with compound in 5% glycerin and QS water, Con. Wt. %: #1,4,5,6 = 5, #2,3 = 2, #7,8,9 = 100, 1 hour phage contact; for Phi X 174 Log. R (PFU/mL) compared to growth controls: positive = inhibits attachment; for Effect against DNA viruses (Phi X 174), in words: positive logarithmic reduction at statistically significant level = anti-adherent
Procedure: (§1) The anti-adherent compositions that inhibit the attachment of RNA and/or DNA viruses to a surface including compounds serving as anti-adherent agents against RNA and DNA viruses were tested against RNA and DNA viruses via the High Throughput Test to Quantify the Attachment of Phage to a Surface, as discussed in detail below. Tables 2 and 3 below show the variety of compounds that were tested as agents in a composition, as well as the results that related to the percent reduction in viruses and the Logarithmic Reduction compared to growth controls. As will be discussed in further detail below in the discussion regarding the High Throughput Test to Quantify the Attachment of Phage to a Surface, a positive logarithmic reduction in viruses equates to anti-adherent properties (e.g., inhibits attachment), and a negative logarithmic reduction in viruses equates to adherent properties (e.g., increases attachment).
The DNA virus that the compositions were tested against for attachment behaviors was Phi X 174. Bacteriophage are commonly utilized as surrogates of mammalian viruses in both medical and virology applications. Phi X 174 is commonly utilized as a viral surrogate because of its size, morphology, environmental stability, and non-human infectivity, and the ability for use in high throughput assays. Phi X174 has been previously been used to study barrier efficacy, making it an ideal surrogate to study attachment to a surface (See, Haman and Nelson, Am J Infect Control, 1993, 21:289-96, O'Connell, et al, Clin Microb Infect, 2004, 10:322-6, ASTM F1671/F1671M-13, Standard Test Method for Resistance of Materials Used in Protective Clothing to Penetration by Blood-Borne Pathogens Using Phi X174 Bacteriophage Penetration as a Test System). Thus, it is well accepted by those of ordinary skill in the art that Phi X 174 serves as a surrogate for other DNA viruses, and the compositions including the adherent agents noted above would act in a substantially similar behavior to other DNA viruses as they did against Phi X 174.
(§2) 1.5 Phage (MS2 and PhiX 174) Enumeration: • 1.5.1 Phage is prepared for use from the stock by diluting 1:1 in BPB. • 1.5.2 Spot Plate Method: • 1.5.2.1 A cell dilution of ˜10^6 CFU/mL of E. coli (E. coli K12 is used for MS2 phage and E. coli C is used for PhiX 174) is prepared from the prepared washed broth culture by diluting in sterile BPB. • 1.5.2.2 An inoculum check is performed on the bacterial dilution in triplicate. • 1.5.2.3 In a 96 well plate, columns 1-12 are filled with 180 μL of the 10^6 CFU/ml E. coli suspension in BPB • 1.5.2.4 20 μL of the samples to be diluted is added in column 1. • 1.5.2.5 10-fold (10×Dilution) in BPB is performed from 10^1-10^12 by moving 20 μL from column 1 to column 2 and mixing. This is repeated, moving down the columns until column 12. • 1.5.2.6 20 μL (or 10 if agar permits) is spot plated on a large labelled OSA plate (spot plate every second column to avoid cross merging of spot plated phages. • 1.5.2.7 Plates are inverted & incubated for 24 h at 37° C. • 1.5.2.8 After 24 h the number of PFU is counted.
(§3) • 1.6.1 Preparation of compounds and coating compounds onto MBEC plate lid • 1.6.2 Using a positive displacement pipette aseptically add 200 μL of compounds to be tested to a sterile 96-well microplate according to the plate layout described below. • 1.6.3 Add 200 μL of each code to the appropriate well for sterility controls. • 1.6.4 Place the MBEC plate lid, peg side down into the 96-well microplate containing the test compound solutions. • 1.6.5 Allow the plate to sit at room temperature (25±3° C.) for 2 hrs. • 1.6.6 Remove the MBEC plate lid and allow the lid to dry at room temperature (25±3° C.) overnight in a laminar flow hood by spacing the MBEC plate lid from the MBEC plate trough with two 10 μL disposable loops. […]

[2] = test system: E. coli ATCC 11229; assay: High Throughput Attachment Test Method (bacterial attachment to MBEC pegs), E. coli; type: cell-based, Escherichia coli; conditions: pegs coated with compound in 5% glycerin and QS water; Con. Wt. %: #1,4,5,6 = 5; #2,3 = 2; #7,8,9 = 100; 15 min bacterial challenge
Procedure: (§4) Anti-adherent compositions including anti-adherent agents as discussed herein were tested against bacteria using the High Throughput Attachment Test Method. The High Throughput Attachment Test Method is discussed in further detail below. The anti-adherent compositions including the anti-adherent agents were tested against Gram-positive Staphylococcus aureus, and Gram-negative Escherichia coll. The pH of the compositions for this testing between 3 to 10 pH, or about 4 to about 8 pH.
(§5) This test method specifies the operational parameters required to grow and or prevent the formation of bacterial attachment using a high throughput screening assay. The assay device consists of a plastic lid with ninety-six (96) pegs and a corresponding receiver plate with ninety-six (96) individual wells that have a maximum 200 μL working volume. Biofilm is established on the pegs under static batch conditions (i.e., no flow of nutrients into or out of an individual well).
(§6) 6.1.1 E. coli ATCC 11229 and S. aureus ATCC 6538 are the organisms used in this test.
(§7) 6.1.5 Incubate flask at 35±2° C. and 175±10 rpm for 16 to 18 hours (E. coli and S. aureus). Viable bacterial density should be 10^9 CFU/mL and should be checked by serial dilution and plating.
(§8) 6.1.6 Pipette 10 mL from the incubation flask of E. coli and S. aureus into a 50 mL conical tube and spin down at 5 minutes at 4,000×g. Then remove supernatant and Resuspend in 10 mL sterile PBS. Approximate cell density should be 10^7-10^9 CFU/mL. Vortex the sample for approximately 30 seconds to achieve a homogeneous distribution of cells.
(§9) 6.2.1.1.1 Using a positive displacement pipette aseptically add 200 μL of compounds and control to be tested to a sterile 96-well microplate according to the plate layout of Table 4 below.
(§10) 6.2.1.1.3 Place the MBEC plate lid, peg side down into the 96-well microplate containing the test compound solutions.
(§11) 6.2.1.1.4 Allow the plate to sit at room temperature (25±3° C.) for 2 hours.
(§12) 6.2.1.1.5 Remove the MBEC plate lid and allow the lid to dry at room temperature (25±3° C.) overnight in a laminar flow hood. […]

[3] = test system: MS2; assay: High Throughput Test to Quantify the Attachment of Phage to a Surface, RNA virus MS2; conditions: for MS2 Percent Reduct. (%) / MS2 Log R (PFU/mL) compared to growth controls: pegs coated with compound in 5% glycerin and QS water, Con. Wt. %: #1,4,5,6 = 5, #2,3 = 2, #7,8,9 = 100, 1 hour phage contact; for MS2 Log R (PFU/mL) compared to growth controls: positive = inhibits attachment; for Effect against RNA viruses (MS2), in words: positive logarithmic reduction at statistically significant level = anti-adherent
Procedure: as §1
The RNA virus that the compositions were tested against for attachment behaviors was MS2. Bacteriophage are commonly utilized as surrogates of mammalian viruses in both medical and virology applications. MS2 phage is commonly utilized as a viral surrogate because of its size, morphology, environmental stability, non-human infectivity, and the ability for use in high throughput assays. Additionally, MS2 is commonly used as a surrogate to study the spread of human Norovirus (See, Tung-Thompson, et al, PLoS One, 2015, 10(8): e0134277, Dawson D J, et al, J App Micro, 2005, 98: 203-209, Jones, et al, J Hosp Infect, 1991, 17:279-85). The use of MS2 phage in hand sanitizer studies makes it an ideal surrogate to study the interaction of personal care products and viral attachment. It is believed that compositions including the adherent agents noted above would act in a substantially similar behavior to other RNA viruses as they did against MS2.
as §2, §3

[4] = test system: S. aureus ATCC 6538; assay: High Throughput Attachment Test Method (bacterial attachment to MBEC pegs), S. aureus; type: cell-based, Staphylococcus aureus; conditions: pegs coated with compound in 5% glycerin and QS water; Con. Wt. %: #1,4,5,6 = 5; #2,3 = 2; #7,8,9 = 100; 15 min bacterial challenge
Procedure: as §4, §5, §6, §7, §8, §9, §10, §11, §12

Compound	Phi X 174 Percent Reduct. (%) [1] [%]	Phi X 174 Log. R (PFU/mL) compared to growth controls [1] [PFU/mL]	Ratio of E. coli growth on treated pegs to untreated pegs (%) [2] [%]	MS2 Percent Reduct. (%) [3] [%]	MS2 Log R (PFU/mL) compared to growth controls [3] [PFU/mL]	Ratio of S. aureus growth on treated pegs to untreated pegs (%) [4] [%]	Effect against DNA viruses (Phi X 174), in words [1]	Effect against RNA viruses (MS2), in words [3]
CCCCC(CC)COC(=O)c1ccccc1O (stereo not shown) [Compound 8, Ethylhexyl Salicylate]	91.45	1.07	111.1	85.40	0.84	75.4	–	–
CCCCCCCCCCCCCCCCCC(=O)OCC(CC)CCCC (stereo not shown) [Compound 7, Ethylhexyl Stearate]	98.58	1.85	48.4	87.46	0.90	68.6	anti-adherent	anti-adherent
CCCCC(CC)COC(=O)C(C#N)=C(c1ccccc1)c1ccccc1 (stereo not shown) [Compound 9, Octocrylene]	93.44	1.18	114.1	−30.27	−0.11	81.9	anti-adherent	neutral
